Assay [1] concerns type 2 diabetes db/db mice. To be noted: injected subcutaneously once every three days.

We go through one substance from patent US11771773B2, “Pharmaceutical preparation containing polyethylene gylcol loxenatide and preparation method thereof” (Jiangsu Hansoh Pharmaceutical Group Co., Ltd., priority 2016, dated 2023).

Consider polyethylene glycol loxenatide, for which, in the assay on normal rats, the glucose-dependent insulinotropic function result is reported as “Good glucose-dependent insulinotropic function”. Besides, in assay [1], the body weight result was “reduced”, the “efficacy compared with Exenatide injected subcutaneously twice a day” value is “comparable to that of Exenatide”, the fasting blood glucose result is “significantly reduced” and the glucose tolerance entry is given as “improved”. In assay [1], the random blood glucose entry is “significantly reduced” and the serum fructosamine levels result is listed as “significantly reduced”.
